Test results reported in patent US8198279B2, “Pyrido[2,3-b]pyrazin-8-substituted compounds and their use” (Institute of Cancer Research: Royal Cancer Hospital (The), priority 2007, dated 2012).
Values joined by “and” are separate entries in the source; they are usually repeats but may differ in a detail not shown here. Equal entries are not always repeated.

Target: T1, B-RAF (Homo sapiens, UniProt P15056, V600E)
T1 construct: made in house
Experiment: DELFIA Kinase Assay
Format: biochemical
Conditions: 100 μM ATP, GST-MEK substrate
Description: Biological Methods—DELFIA Kinase Assay
Compounds were assessed by a kinase assay performed according to the following protocol.
DKB1 (DKB with B-RAF and MEK Protein):
Combine 4950 μL of DKB and 50 μL of 2.5 mg/ml GST-MEK stock (to give […] of MEK per 40 μL). Then add 22.5 μL of B-RAF to give ˜0.2 μL of B-RAF per 40 μL.
100 mM stock, dilute to 500 μM to give 100 μM final concentration in assay.
• 1. Preblock wells with 5% milk in TBS for 1 hour. • 2. Wash wells with 3× with 200 μL TBS. • 3. Plate out 40 μL of DKB1 for all inhibitors (test compounds), DMSO control, and optionally other control compounds. • 4. Plate out 40 μL of DKB2 for BO and EV wells. • 5. Add inhibitors (test compounds) at 0.5 μL per well according to desired plate layout. • 6. Add 0.5 μL DMSO to vehicle control wells. • 7. Add 2 μL of B-RAF to BO and EV wells. • 8. Pre-incubate with inhibitors (test compounds) for 10 minutes at room temperature with shaking. • 9. Add 10 μL of 500 μM ATP stock, in DKB, to give 100 μM assay concentration. • 10. Seal plates with TopSeal and incubate at room temperature with shaking for 45 minutes. • 11. Wash plates 3× with 200 μL 0.1% Tween20/Water to terminate reaction. • 12. Add 50 μL per well of antibody mix and incubate for 1 hour at room temperature with shaking. • 13. Wash plates 3× with 200 μL 0.1% Tween20/Water. • 14. Add 100 μL DELFIA enhancement solution per well, cover in foil, and incubate at room temperature for 30 minutes with shaking. • 15. Read on Victor using Europium protocol.
Values for the blank (Empty Vector) are subtracted from all values. The DMSO controls are set as 100% activity and assay points (the response) are calculated as a percentage of the DMSO control. Data are plotted using Graphpad Prism software and a non-linear regression line is calculated using a variable slope sigmoidal dose-response equation (Y=Bottom+(Top−Bottom)/(1+10^((LogEC50−X)*HillSlope)) where X is the logarithm of concentration. Y is the response). The IC50 generated by this procedure is the concentration of the drug that produces a percentage control fluorescence value midway between the saturation, and zero-effect plateaus. Three independent assays are usually performed and the mean IC50 is reported.

T1 sequence (P15056 whole entry V600E): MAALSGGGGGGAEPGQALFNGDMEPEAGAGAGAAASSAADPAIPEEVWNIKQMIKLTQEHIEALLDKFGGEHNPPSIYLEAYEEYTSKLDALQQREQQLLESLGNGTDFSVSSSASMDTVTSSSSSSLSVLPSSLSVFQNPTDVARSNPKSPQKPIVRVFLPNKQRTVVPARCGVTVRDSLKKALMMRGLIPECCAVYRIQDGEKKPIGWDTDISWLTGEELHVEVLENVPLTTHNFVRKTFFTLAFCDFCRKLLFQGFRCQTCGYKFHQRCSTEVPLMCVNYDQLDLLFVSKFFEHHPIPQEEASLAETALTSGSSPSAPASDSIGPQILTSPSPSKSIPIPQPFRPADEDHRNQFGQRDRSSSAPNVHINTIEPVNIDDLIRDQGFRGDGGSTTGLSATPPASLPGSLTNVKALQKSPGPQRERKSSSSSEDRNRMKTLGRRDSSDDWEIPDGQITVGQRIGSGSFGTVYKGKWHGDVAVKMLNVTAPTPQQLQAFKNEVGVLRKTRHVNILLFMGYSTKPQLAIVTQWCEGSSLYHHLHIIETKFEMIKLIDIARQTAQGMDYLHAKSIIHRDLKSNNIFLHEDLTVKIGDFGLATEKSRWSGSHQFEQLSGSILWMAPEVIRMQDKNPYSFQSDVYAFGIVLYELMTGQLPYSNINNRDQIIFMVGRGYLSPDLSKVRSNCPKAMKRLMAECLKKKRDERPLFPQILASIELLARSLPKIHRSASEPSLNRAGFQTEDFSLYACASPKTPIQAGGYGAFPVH

Structure (SMILES)	IC50
O=C(Nc1ccc(Oc2ccnc3nc(N4CCOCC4)cnc23)cc1F)Nc1cc(C(F)(F)F)ccc1F [AA-054, 1-(2-Fluoro-4-(3-morpholinopyrido[2,3-b]pyrazin-8-yloxy)phenyl)-3-(2-fluoro-5-(trifluoromethyl)phenyl)urea]	< 100 nM
O=C(Nc1cc(C(F)(F)F)ccc1F)Nc1ccc(Oc2ccnc3[nH]c(=O)c(C(F)(F)F)nc23)c2ccccc12 [AA-082, 1-(2-fluoro-5-(trifluoromethyl)phenyl)-3-(4-(3-oxo-2-(trifluoromethyl)-3,4-dihydropyrido[2,3-b]pyrazin-8-yloxy)naphthalen-1-yl)urea]	100 to 1000 nM
O=C(Nc1ccc(Sc2ccnc3[nH]c(=O)cnc23)cc1)Nc1cc(C(F)(F)F)ccc1F [AA-027, 1-(2-Fluoro-5-(trifluoromethyl)phenyl)-3-(4-(3-oxo-3,4-dihydropyrido[2,3-b]pyrazin-8-ylthio)phenyl)urea]	< 100 nM
CSc1cc(Oc2ccnc3ncc(=O)[nH]c23)ccc1NC(=O)Nc1ccc(Cl)c(C(F)(F)F)c1 [AA-045, 1-(4-chloro-3-(trifluoromethyl)phenyl)-3-(2-(methylthio)-4-(2-oxo-1,2-dihydropyrido[2,3-b]pyrazin-8-yloxy)phenyl)urea]	< 100 nM
O=C(Nc1ccc(Oc2ccnc3[nH]c(=O)c(=O)[nH]c23)cc1)Nc1ccc(Cl)c(C(F)(F)F)c1 [AA-050, 1-(4-chloro-3-(trifluoromethyl)phenyl)-3-(4-(2,3-dioxo-1,2,3,4-tetrahydropyrido[2,3-b]pyrazin-8-yloxy)phenyl)urea]	< 100 nM
CSc1cc(Oc2ccnc3[nH]c(=O)c(=O)[nH]c23)ccc1NC(=O)Nc1cc(C(F)(F)F)ccc1F [AA-052, 1-(4-(2,3-dioxo-1,2,3,4-tetrahydropyrido[2,3-b]pyrazin-8-yloxy)-2-(methylthio)phenyl)-3-(2-fluoro-5-(trifluoromethyl)phenyl)urea]	< 100 nM
CSc1cc(Oc2ccnc3[nH]c(=O)cnc23)ccc1NC(=O)Nc1cc(C(F)(F)F)ccc1F [AA-024, 1-(2-fluoro-5-(trifluoromethyl)phenyl)-3-(2-(methylthio)-4-(3-oxo-3,4-dihydropyrido[3,2-b]pyrazin-8-yloxy)phenyl)urea]	< 100 nM
O=C(Nc1cc(C(F)(F)F)ccc1F)Nc1ccc(Oc2ccnc3ncc(=O)[nH]c23)c2ccccc12 [AA-038, 1-(2-fluoro-5-(trifluoromethyl)phenyl)-3-(4-(2-oxo-1,2-dihydropyrido[2,3-b]pyrazin-8-yloxy)naphthalen-1-yl)urea]	< 1000 nM and 100 to 1000 nM
Cc1ccc(-n2nc(C(C)(C)C)cc2NC(=O)Nc2ccc(Oc3ccnc4ncc(=O)[nH]c34)cc2)cc1 [AA-040, 1-(3-tert-butyl-1-p-tolyl-1H-pyrazol-5-yl)-3-(4-(2-oxo-1,2-dihydropyrido[2,3-b]pyrazin-8-yloxy)phenyl)urea]	100 to 1000 nM
CN1CCN(c2cnc3c(Oc4ccc(NC(=O)Nc5cc(C(C)(C)C)nn5-c5ccccc5)c(F)c4)ccnc3n2)CC1 [AA-053, 1-(3-Tert-butyl-1-phenyl-1H-pyrazol-5-yl)-3-(2-fluoro-4-(3-(4-methylpiperazin-1-yl)pyrido[2,3-b]pyrazin-8-yloxy)phenyl)urea]	< 1000 nM and 100 to 1000 nM
CN1CCN(c2cnc3c(Oc4ccc(NC(=O)Nc5cc(C(F)(F)F)ccc5F)c(F)c4)ccnc3n2)CC1 [AA-056, 1-(2-Fluoro-4-(3-(4-methylpiperazin-1-yl)pyrido[3,2-b]pyrazin-8-yloxy)phenyl)-3-(2-fluoro-5-(trifluoromethyl)phenyl)urea]	< 1000 nM and 100 to 1000 nM
Cc1ccc(-n2nc(C(C)(C)C)cc2NC(=O)Nc2ccc(Oc3ccnc4[nH]c(=O)cnc34)cc2)cc1 [AA-016, 1-(3-tert-butyl-1-p-tolyl-1H-pyrazol-5-yl)-3-(4-(3-oxo-3,4-dihydropyrido[2,3-b]pyrazin-8-yloxy)phenyl)urea]	< 1000 nM and 100 to 1000 nM and 252 nM
O=C(Nc1ccc(Oc2ccnc3ncc(=O)[nH]c23)cc1)Nc1cc(C(F)(F)F)ccc1F [AA-043, 1-(2-fluoro-5-(trifluoromethyl)phenyl)-3-(4-(2-oxo-1,2-dihydropyrido[2,3-b]pyrazin-8-yloxy)phenyl)urea]	100 to 1000 nM
Cc1ccc(-n2nc(C(C)(C)C)cc2NC(=O)Nc2cccc(Oc3ccnc4[nH]c(=O)cnc34)c2)cc1 [AA-006, 1-(3-tert-butyl-1-p-tolyl-1H-pyrazol-5-yl)-3-(3-(3-oxo-3,4-dihydropyrido[2,3-b]pyrazin-8-yloxy)phenyl)urea]	< 100 nM
CSc1cc(Oc2ccnc3[nH]c(=O)cnc23)ccc1NC(=O)Nc1cc(C(C)(C)C)nn1-c1ccc(C)cc1 [AA-017, 1-(3-tert-butyl-1-p-tolyl-1H-pyrazol-5-yl)-3-(2-(methylthio)-4-(3-oxo-3,4-dihydropyrido[2,3-b]pyrazin-8-yloxy)phenyl)urea]	< 100 nM
CSc1cc(Oc2ccnc3[nH]c(=O)cnc23)ccc1NC(=O)Nc1ccc(Cl)c(C(F)(F)F)c1 [AA-023]	< 100 nM
Cc1nc2c(Oc3ccc(NC(=O)Nc4cc(C(C)(C)C)nn4-c4ccccc4)c4ccccc34)ccnc2[nH]c1=O [AA-009, 1-(3-tert-butyl-1-phenyl-1H-pyrazol-5-yl)-3-(4-(2-methyl-3-oxo-3,4-dihydropyrido[2,3-b]pyrazin-8-yloxy)naphthalen-1-yl)urea]	< 100 nM
Cc1nc2nccc(Oc3ccc(NC(=O)Nc4cc(C(C)(C)C)nn4-c4ccccc4)c4ccccc34)c2[nH]c1=O [AA-035, 1-(3-tert-butyl-1-phenyl-1H-pyrazol-5-yl)-3-(4-(3-methyl-2-oxo-1,2-dihydropyrido[2,3-b]pyrazin-8-yloxy)naphthalen-1-yl)urea]	100 to 1000 nM
Cc1nc2c(Oc3cccc(NC(=O)c4cccc(C(C)(C)C)c4)c3)ccnc2[nH]c1=O [AA-005, 3-tert-butyl-N-(3-(2-methyl-3-oxo-3,4-dihydropyrido[2,3-b]pyrazin-8-yloxy)phenyl)benzamide]	< 100 nM
Cc1nc2c(Oc3ccc(NC(=O)Nc4cc(C(F)(F)F)ccc4F)c(F)c3)ccnc2[nH]c1=O [AA-028, 1-(2-Fluoro-4-(2-methyl-3-oxo-3,4-dihydropyrido[2,3-b]pyrazin-8-yloxy)phenyl)-3-(2-fluoro-5-(trifluoromethyl)phenyl)urea]	< 100 nM
Cc1ccc(-n2nc(C(C)(C)C)cc2NC(=O)Nc2cccc(Oc3ccnc4ncc(=O)[nH]c34)c2)cc1 [AA-031, 1-(3-tert-butyl-1-p-tolyl-1H-pyrazol-5-yl)-3-(3-(2-oxo-1,2-dihydropyrido[2,3-b]pyrazin-8-yloxy)phenyl)urea]	< 1000 nM and 100 to 1000 nM
O=C(Nc1ccc(Oc2ccnc3ncc(=O)[nH]c23)cc1F)Nc1cc(C(F)(F)F)ccc1F [AA-047]	< 100 nM
O=C(Nc1cccc(Oc2ccnc3ncc(=O)[nH]c23)c1)Nc1cc(C(F)(F)F)ccc1F [AA-032, 1-(2-fluoro-5-(trifluoromethyl)phenyl)-3-(3-(2-oxo-1,2-dihydropyrido[2,3-b]pyrazin-8-yloxy)phenyl)urea]	< 100 nM
Cc1nc2nccc(Oc3ccc(NC(=O)Nc4cc(C(F)(F)F)ccc4F)c4ccccc34)c2[nH]c1=O [AA-039, 1-(2-fluoro-5-(trifluoromethyl)phenyl)-3-(4-(3-methyl-2-oxo-1,2-dihydropyrido[2,3-b]pyrazin-8-yloxy)naphthalen-1-yl)urea]	< 1000 nM and 100 to 1000 nM
Cc1nc2c(Oc3ccc(NC(=O)Nc4cc(C(F)(F)F)ccc4F)c4ccccc34)ccnc2[nH]c1=O [AA-014, 1-(2-fluoro-5-(trifluoromethyl)phenyl)-3-(4-(2-methyl-3-oxo-3,4-dihydropyrido[2,3-b]pyrazin-8-yloxy)naphthalen-1-yl)urea]	< 100 nM
O=C(Nc1cccc(Oc2ccnc3ncc(=O)[nH]c23)c1)c1cccc(OC(F)(F)F)c1 [AA-030, N-(3-(2-oxo-1,2-dihydropyrido[2,3-b]pyrazin-8-yloxy)phenyl)-3-(trifluoromethoxy)benzamide]	< 1000 nM and 100 to 1000 nM
CC(C)(C)c1cc(NC(=O)c2cccc(Oc3ccnc4[nH]c(=O)cnc34)c2)n(-c2ccccc2)n1 [AA-001, N-(3-tert-butyl-1-phenyl-1H-pyrazol-5-yl)-3-(3-oxo-3,4-dihydropyrido[2,3-b]pyrazin-8-yloxy)benzamide]	< 1000 nM and 100 to 1000 nM
Nc1nc2c(Oc3ccc(NC(=O)Nc4cc(C(F)(F)F)ccc4F)c4ccccc34)ccnc2[nH]c1=O [AA-015, 1-(4-(2-amino-3-oxo-3,4-dihydropyrido[2,3-b]pyrazin-8-yloxy)naphthalen-1-yl)-3-(2-fluoro-5-(trifluoromethyl)phenyl)urea]	< 100 nM
Nc1nc2c(Oc3ccc(NC(=O)Nc4cc(C(F)(F)F)ccc4F)c(F)c3)ccnc2[nH]c1=O [AA-044, 1-(4-(2-amino-3-oxo-3,4-dihydropyrido[2,3-b]pyrazin-8-yloxy)-2-fluorophenyl)-3-(2-fluoro-5-(trifluoromethyl)phenyl)urea]	< 100 nM
